Some test systems named below: SK-MEL-28; UACC-257; SNB-19; SK-MEL-2; MDA-MB-231; PC-3; A498; RXF 393; IGROV-1; UACC-62; U-251; Hs-578T; HCT-15; EKVX; DU-145; COLO 205; SF-268; OVCAR-3; SW-620.
Common to all, as to experiment: NCI-60 cell line screen, 48 h

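Compound exposure: 48 hours, 5 concentrations, 96-well plates. GI50: concentration for 50% inhibition of growth.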 Active and inactive are the calls of the source. No stated cut-off is given here; in the data, active = GI50 up to about 1.1 µM and inactive = higher. Some results are limits rather than exact numbers.

As to `CC(C)CC(=O)OC[n+]1ccc(-c2c(COC(=O)NC(C)C)c(COC(=O)NC(C)C)c3n2CCC3)cc1`, the GI50 in the test on SK-MEL-28, with UACC-257, in the test on SNB-19, in the test with SK-MEL-2, in the test on MDA-MB-231 and in the test with PC-3 was > 100 µM (inactive) throughout. Moreover, the GI50 in the test with A498 is 84.3 µM (inactive); in the test on RXF 393, > 100 µM (inactive); in the test on IGROV-1 it was > 100 µM (inactive); with UACC-62, 83.8 µM (inactive); in the test on U-251, > 100 µM (inactive); with Hs-578T, > 100 µM (inactive). The GI50 with HCT-15 was more than 100 µM; with EKVX, > 100 µM (inactive); with DU-145, > 100 µM (inactive); in the test on COLO 205 it was > 100 µM (inactive); in the test with SF-268 it was > 100 µM (inactive); in the test with OVCAR-3, > 100 µM (inactive). The GI50 in the test with SW-620 was > 100 µM (inactive).
With `CCC1=C(C=O)c2cc3[nH]c(cc4nc(c5c6[nH]c(cc1n2)c(C)c6C(=O)C5C(=O)OC)C(CCC(=O)OC)C4C)c(C)c3CC` (configuration not stated), the GI50 in the test on SK-MEL-28, in the test on UACC-257, with SNB-19, with SK-MEL-2, in the test with MDA-MB-231 and with PC-3 was > 100 µM (inactive) in each case. The GI50 with A498 was > 100 µM (inactive); in the test with RXF 393, > 100 µM (inactive); in the test on IGROV-1 it was > 100 µM (inactive); in the test with UACC-62, > 100 µM (inactive); with U-251 it was > 100 µM (inactive); with Hs-578T, 88.1 µM (inactive). The GI50 in the test on HCT-15 is more than 100 µM; with EKVX it was > 100 µM (inactive); in the test with DU-145, > 100 µM (inactive); in the test with COLO 205, > 100 µM (inactive); with SF-268, > 100 µM (inactive); with OVCAR-3 it was > 100 µM (inactive). Further, in the test on SW-620, the GI50 was > 100 µM (inactive).
On to `O=C1OCC2(CO1)CC1C=CC2C1` (configuration not stated), for which the GI50 with SK-MEL-28, with UACC-257, with SNB-19, in the test on SK-MEL-2, in the test on MDA-MB-231 and in the test with PC-3 was > 100 µM (inactive) throughout. Besides, the GI50 in the test on A498, with RXF 393, with IGROV-1, in the test with UACC-62, in the test on U-251 and in the test with Hs-578T was > 100 µM (inactive) in each case. The GI50 was more than 100 µM in the test on HCT-15; > 100 µM (inactive) with EKVX; > 100 µM (inactive) in the test with DU-145; > 100 µM (inactive) in the test on COLO 205; > 100 µM (inactive) in the test on SF-268; > 100 µM (inactive) with OVCAR-3. The GI50 with SW-620 is > 100 µM (inactive).
Consider `COc1cc(Nc2nc3ccccc3n3cccc23)cc(OC)c1OC`, for which the GI50 with SK-MEL-28 was > 100 µM (inactive); with UACC-257 it was > 100 µM (inactive); with SNB-19 it was 98.2 µM (inactive); in the test with SK-MEL-2, 52.5 µM (inactive); in the test on MDA-MB-231 it was 27.1 µM (inactive); with PC-3, > 100 µM (inactive). The GI50 was > 100 µM (inactive) in the test on A498; 17.5 µM (inactive) in the test on RXF 393; 54.7 µM (inactive) in the test with IGROV-1; > 100 µM (inactive) in the test on UACC-62; 47.8 µM (inactive) with U-251; 64.4 µM (inactive) in the test on Hs-578T. Further, the GI50 was more than 100 µM in the test on HCT-15; > 100 µM (inactive) with EKVX; > 100 µM (inactive) with DU-145; > 100 µM (inactive) in the test with COLO 205; 28.5 µM (inactive) with SF-268; > 100 µM (inactive) in the test on OVCAR-3. Further, the GI50 with SW-620 is > 100 µM (inactive).
With `CC(NC1=NCCO1)c1cccc([N+](=O)[O-])c1` (configuration not stated), the GI50 in the test with SK-MEL-28, in the test on UACC-257, with SNB-19, in the test on SK-MEL-2, in the test with MDA-MB-231 and in the test on PC-3 was > 100 µM (inactive) throughout. In addition, the GI50 with A498, in the test with RXF 393, in the test with IGROV-1, in the test with UACC-62, in the test with U-251 and in the test on Hs-578T was > 100 µM (inactive) in each case. For the same compound, the GI50 is more than 100 µM in the test on HCT-15; > 100 µM (inactive) with EKVX; > 100 µM (inactive) with DU-145; > 100 µM (inactive) in the test on COLO 205; > 100 µM (inactive) in the test on SF-268; > 100 µM (inactive) in the test with OVCAR-3. For the same compound, the GI50 in the test with SW-620 is > 100 µM (inactive).
As for `Cc1ccc2c(c1)c1ccc3c(c1n2C)C(=O)C=CC3=O`, the GI50 in the test on SK-MEL-28 is 2.18 µM (inactive); in the test with UACC-257, 2.51 µM (inactive); with SNB-19, > 10 µM (inactive); in the test with SK-MEL-2, 7.48 µM (inactive); in the test with MDA-MB-231, 2.36 µM (inactive); with PC-3 it was 3.66 µM (inactive). Also, the GI50 with A498 is 2.88 µM (inactive); in the test on RXF 393 it was 1.97 µM (inactive); in the test on IGROV-1, 3.52 µM (inactive); in the test with UACC-62, 3.01 µM (inactive); in the test with U-251 it was > 7.31 µM (inactive); in the test on Hs-578T, 3.08 µM (inactive). The GI50 is 1.75 µM with HCT-15; > 4.85 µM (inactive) in the test with EKVX; 7.33 µM (inactive) in the test with DU-145; 1.26 µM (inactive) in the test on COLO 205; 3.43 µM (inactive) with SF-268; 1.95 µM (inactive) with OVCAR-3. Also, in the test on SW-620, the GI50 was 0.543 µM (active).
In the case of `COc1ccc(-c2cn3c(nc4ccccc43)c(C)n2)cc1`, the GI50 with SK-MEL-28 is 95.5 µM (inactive); in the test with UACC-257 it was > 61.9 µM (inactive); in the test on SNB-19, 44.9 µM (inactive); with SK-MEL-2, 44.9 µM (inactive); in the test on MDA-MB-231, > 100 µM (inactive); with PC-3, 72.3 µM (inactive). The GI50 with A498 was > 76.4 µM (inactive); in the test with RXF 393, 44.5 µM (inactive); with IGROV-1, 28.8 µM (inactive); with UACC-62, 35.3 µM (inactive); with U-251 it was 50.4 µM (inactive); in the test on Hs-578T it was 41.6 µM (inactive). Besides, the GI50 with HCT-15 was more than 93.1 µM; in the test with EKVX, 83 µM (inactive); in the test with DU-145, 51.1 µM (inactive); with COLO 205, > 100 µM (inactive); in the test on SF-268 it was > 51.5 µM (inactive); in the test on OVCAR-3 it was 54.8 µM (inactive). The GI50 in the test on SW-620 is > 100 µM (inactive).
`O=C(O)C(Br)C(Br)c1ccccc1[N+](=O)[O-]` (configuration not stated): the GI50 in the test with SK-MEL-28, with UACC-257, with SNB-19, in the test on SK-MEL-2, in the test on MDA-MB-231 and with PC-3 was > 100 µM (inactive) each time. The GI50 with A498, with RXF 393, in the test with IGROV-1, in the test on UACC-62, in the test with U-251 and with Hs-578T was > 100 µM (inactive) throughout. Also, the GI50 with HCT-15 was more than 100 µM; in the test on EKVX, > 100 µM (inactive); with DU-145, > 100 µM (inactive); in the test on COLO 205, > 100 µM (inactive); in the test with SF-268, > 100 µM (inactive); in the test with OVCAR-3, 46.9 µM (inactive). Besides, the GI50 in the test with SW-620 was > 100 µM (inactive).

(Values after ChEMBL document CHEMBL1201862, “PubChem BioAssay data set” (2004).)
